Values quoted from earlier work, collected in paper PMC4381587, “A novel PI3K inhibitor PIK-C98 displays potent preclinical activity against multiple myeloma” (Oncotarget, 2014).

Columns and labels:
[1] = tested on: relapsed chronic lymphocytic leukemia; parameters: method as in PMID 24450857, PMID 24450858; conditions: phase II, single agent; cited from earlier work
[2] = tested on: relapsed indolent lymphoma; parameters: method as in PMID 24450857, PMID 24450858; conditions: phase II, single agent; cited from earlier work

## CC[C@H](Nc1ncnc2[nH]cnc12)c1nc2cccc(F)c2c(=O)n1-c1ccccc1 [idelalisib]
[1]
  overall complete rate: 72%
[2]
  total response rate: 57%
